Patent publication US20260226079A1, “A STRATEGY FOR THE SELECTIVE REMOVAL OF MRI CONTRAST AGENTS” (Portland State University, priority 2023, published 2026)
Marks after values point to notes of the source that are not given here. Blank lines part the entries; values can stand above or below the compound they belong to.

Tests used:
[1] = SPAAC selective interception of GdDO3A-DBCO monoamide chelate on azide terminated PS beads, Gd in supernatant by ICP-MS; conditions: for % Gd Remaining: 50° C., 1,000 rpm, 24 hours
Protocol: To address potential stability issues associated with the GdTTHA-Alkyne and azide-PS beads system, tri-acetate mono-amide chelate systems were tested, that may experience fewer experimental difficulties. The initial SPAAC reactions were carried out with GdDO3A-DBCO monoamide chelate and azide terminated bead (FIG. 13). The Gd^3+ concentration was temporally monitored in the supernatant to gain a sense of reaction kinetics and optimal reaction times. To avoid mechanical stirring, a temperature-controlled thermomixer was used which mixed through agitation and was capable of batch testing. And the reaction was analyzed by ICP-MS.
All experiments were performed on a 100 mg bead scale with 0.5 equivalents of GdDO3A-DBCO monoamide chelate in water (1 mL) agitated at 1,000 rpm and 50° C. […] were selected: 3 minutes, 3 hours, 6 hours, 9 hours and 24 hours. The reactions were stopped at their respective time point, the sample was centrifuged and the supernatant was decanted and filtered. The beads were washed and centrifuged three times before the filtered supernatant was freeze dried and digested in HNO3 for ICP-MS analysis.
The effect of pH at relevant pH ranges of urine (~4.5-8) on the efficiency of Gd removal was investigated. Additionally, the role of an organic cosolvent was investigated to determine whether the aqueous medium is a limiting factor in efficiency. A pH range of 5-9 was tested with 1:1 v:v DMSO:H2O at 50° C. stirring at 1,000 rpm for 24 hours. The reaction mixtures were centrifuged, and the supernatant was decanted and filtered. The beads were washed and centrifuged in triplicate and the supernatants were freeze dried and digested for ICP-MS analysis, data summarized below in Table 1.
A multivariate approach was designed to establish the interaction between various levels of cosolvent volume, reaction time and temperature. The volume of DMSO was lowered with the hope of identifying other contributing factors that would lead to an enhanced outcome using a minimal amount of organic cosolvent. Additionally, the temperature ranged from 25° C. to 50° C. and the reaction time was assessed over 0.5 hours and 24 hours, and at pH 7. The scale of the beads and GdDO3A-DBCO monoamide chelate remained the same as previous trials at a 100 mg scale with 0.5 equivalents of GBCA while mixing at 1,000 rpm. The beads were centrifuged, washed, and digested in nitric acid for ICP-MS analysis using the methods described previously, results summarized below in Table 2.
Following the suboptimal results from previous trials with a smaller volume of DMSO cosolvent, the range of added cosolvent was increased to 50% v:v. Additionally, a simulated urine matrix, Surine™, was added to test if there were any significant effects from any urine constituents on the reaction efficiency. The experiments were run with variable reaction times, matrix and percentage DMSO at pH 7 and 37° C.

[2] = Temperature-dependent 17O R2p transverse relaxation rate (67.8 MHz, 11.74 T) and fitting; type: physicochemical; conditions: for τM, water residence lifetime / AO/h / Δ HM: fitted; for τM, water residence lifetime: pH 7.0 (GdDO3A-N3-monoamide), pH 6.8 (GdDO3A-DBCO-monoamide); for AO/h / Δ HM: pH 7.0 (N3), pH 6.8 (DBCO)
Protocol: FIG. 18 is a plot illustrating the GdDO3A-DBCO monoamide temperature-dependent R2p relaxation rate of ^17O measured at 67.8 MHz (11.74 T) pH 6.8, and a Gd^3+ concentration of 6.5 mM.
FIG. 20 is a plot illustrating the GdDO3A-azido monoamide temperature-dependent R2p relaxation rate of ^17O measured at 67.8 MHz (11.74 T) pH 7.0, and a Gd^3+ concentration of 8.5 mM.
(§1) Previous work by the inventors has shown that chelates functionalized with bulky aromatic groups have the propensity to self-associate in solution. […] The most common methods to determine the physico-chemical properties described by SBM theory are through fittings of experimental data obtained from the reduced ^17O transverse relaxation rate, R2p, as a function of temperature and relaxivity, ri, as a function of proton Larmor frequency i.e. nuclear magnetic resonance dispersion (NMRD) profiles.
Analysis of the reduced transverse relaxation rate constant of ^17O (R2p) as a function of temperature is the most common experimental technique to determine water residence lifetime, τM. The function typically resembles a bell curve where the inflection point temperature is an indicator of water exchange kinetics. The experiments were performed at a pH of 6.8 and a Gd^3+ concentration of 6.5 mM. Precipitation was observed below 295 K. The ^17O curve reached an inflection point at about 310 K, and the fitted value of τM was 545 ns, comparatively slow in the context of achieving high relaxivities but fast enough that exchange is in the fast exchange regime and rl is sensitive to changes in molecular tumbling, […].
Unsurprisingly, the shape is nearly identical to the DBCO-containing counterpart; both are monoamides and a similar water exchange rate would be expected. In this case, the water residence lifetime time constant (τM) was equivalent to the DBCO ligand at 545 ns.

[3] = 1H NMRD relaxivity profiles and parametric fitting (SBM / Lipari-Szabo); type: physicochemical; set-up: ^298D: unit not given here; conditions: for ^22r1 (298K), relaxivity: 20 MHz; for ^22r1 (298K), relaxivity / ER / Δ^2 / τRG, global rotational correlation time constant / τV: pH 7.0 (N3), pH 6.8 (DBCO); for EV / ^298D / a / q / r: fixed during fitting
Protocol: FIG. 19 is a plot illustrating the GdDO3A-DBCO monoamide ^1H NMRD profiles at 283 (blue, top line), 298 (black, middle line) and 310 K (red, lower line), measured at pH 6.8, and a Gd^3+ concentration of 1.32 mM.
FIG. 21 is a plot illustrating the GdDO3A-azido monoamide ^1H NMRD profiles at 283 (blue, top line), 298 (black, middle line) and 310 K (red, lower line), measured at pH 7.0.
as §1
The NMRD profiles of GBCAs are used to characterize several important physico-chemical parameters described by SBM theory. The most influential parameter which affects the shape of an NMRD curve is the rotational correlation time constant (τR) of the complex. Macromolecular species which tumble slowly impart a positive impact on relaxivity at all fields, but particularly at high fields presented as a characteristic “hump” in the 10-60 MHz region, distinct from quickly tumbling chelates in which relaxivity continues to decrease with increasing field strength. The molecular weight of the GdDO3A-DBCO monoamide would not be considered a large macromolecular structure; any indication of a slowly tumbling complex would be indicative of an aggregate species which we hypothesized as the self-associating chelate. As shown below in FIG. 19, relaxivity is quite high in low field regions where electronic spin relaxation contributes, followed by a characteristic dispersion around 1 MHz when the contribution drops off. There is a “hump” around 20 MHz which is indicative of a slowly tumbling species, consistent with a self-associating chelate. This macromolecular structure is the source of a rather high relaxivity of 7.1 mM^−1s^−1 (20 MHz, pH 6.8, 298 K) in comparison to most clinical agents which remain in the 4 mM^−1 s^−1-5 mM^−1s^−1 range.
The global and local rotational correlation time constants were 375 ps and 107 ps, respectively. […] This further corroborated the presence of a self-association which led to a decrease in the efficiency observed in selective interception trials.
The dispersion at 1-10 MHz corresponded to a typical drop-off of the electronic spin relaxation contribution, followed by continued decrease in relaxivity with increasing field strength. There was no evidence of a slowly tumbling structure which was reflected in a standard parametric fitting procedure with one discrete rotational contribution.

[4] = SPAAC selective interception of GdDO3A-azido monoamide chelate on DBCO-PS beads, Gd by ICP-MS; conditions: pH 7, 37° C.
Protocol: The GdDO3A-azido monoamide chelate and DBCO-PS beads shown in FIG. 15 were utilized in a similar experiment described previously. Due to the expensive DBCO starting material, the beads were generated on small scales. Accordingly, the scales of the experiments were reduced to 50 mg bead starting material and 0.5 equivalents of GBCA consistent with the loading capacity determined for each batch of DBCO-PS. All other conditions remained constant (1 mL reaction volume, 37° C., 1,000 rpm mixing at pH 7). Samples were prepared for ICP-MS analysis using the same method as previously described with fewer dilutions. The experiments were run with variable reaction times, matrix, and percentage DMSO.

[5] = 20 MHz and 298 K, comparison value; cited from earlier work
[6] = fitted, Lipari-Szabo approach, pH 6.8

Gd Remaining (%) ([1]; Entry 1: 0.5 hr, Water, 0% DMSO, pH 7, 37° C.): 27% | Gd Remaining (%) ([1]; Entry 1: cosolvent 0 μL, 25 °C, 0.5 hr, pH 7): 71% | Gd Remaining (%) ([1]; Entry 2: 0.5 hr, Water, 50% DMSO, pH 7, 37° C.): 28% | Gd Remaining (%) ([1]; Entry 2: cosolvent 0 μL, 25 °C, 24 hr, pH 7): 70% | Gd Remaining (%) ([1]; Entry 3: 8 hr, Water, 0% DMSO, pH 7, 37° C.): 27% | Gd Remaining (%) ([1]; Entry 3: cosolvent 100 μL, 25 °C, 0.5 hr, pH 7): 68% | Gd Remaining (%) ([1]; Entry 4: 8 hr, Water, 50% DMSO, pH 7, 37° C.): 18% | Gd Remaining (%) ([1]; Entry 4: cosolvent 100 μL, 25 °C, 24 hr, pH 7): 69% | Gd Remaining (%) ([1]; Entry 5: 0.5 hr, Surine, 0% DMSO, pH 7, 37° C.): 28% | Gd Remaining (%) ([1]; Entry 5: cosolvent 0 μL, 50 °C, 0.5 hr, pH 7): 67% | Gd Remaining (%) ([1]; Entry 6: 0.5 hr, Surine, 50% DMSO, pH 7, 37° C.): 29% | Gd Remaining (%) ([1]; Entry 6: cosolvent 0 μL, 50 °C, 24 hr, pH 7): 65% | Gd Remaining (%) ([1]; Entry 7: 8 hr, Surine, 0% DMSO, pH 7, 37° C.): 30% | Gd Remaining (%) ([1]; Entry 7: cosolvent 100 μL, 50 °C, 0.5 hr, pH 7): 69% | Gd Remaining (%) ([1]; Entry 8: 8 hr, Surine, 50% DMSO, pH 7, 37° C.): 20% | Gd Remaining (%) ([1]; Entry 8: cosolvent 100 μL, 50 °C, 24 hr, pH 7): 67% | % Gd Remaining ([1]; pH 5, 1:1 v:v DMSO:H2O): 1.64% | % Gd Remaining ([1]; pH 7, 1:1 v:v DMSO:H2O): 2% | % Gd Remaining ([1]; pH 9, 1:1 v:v DMSO:H2O): 1.6% | τM, water residence lifetime [2]: 545 ns | AO/h [2]: −3.0 10^6 rad s^−1 | Δ HM [2]: 11 kcal/mol | inflection point of 17O R2p curve ([2]; pH 6.8, Gd^3+ 6.5 mM): about 310 K | temperature below which precipitation was observed ([2]; pH 6.8, Gd^3+ 6.5 mM): below 295 K | ^22r1 (298K), relaxivity [3]: 7.1 mM⁻¹ s⁻¹ | aggregate rotates more slowly than the discrete chelate (global vs local rotation), fold ([3]; Lipari-Szabo fitting): over 3 × | S^□ [3, 6]: 0.36 | τRL, local rotational correlation time constant [3, 6]: 107 ps | ER ([3]; fitted): 4.78 kcal/mol | Δ^2 ([3]; fitted): 3.5 10^19 s^−2 | τRG, global rotational correlation time constant ([3]; fitted): 375 ps | τV ([3]; fitted): 13 ps | EV [3]: 1.0^a kJ mol^−1 | ^298D [3]: 2.24 | a [3]: 4.0^a Å | q [3]: 1^a | r [3]: 3.0^a Å
Compound: O=C([O-])CN1CCN(CC(=O)[O-])CCN(CC(=O)NCCC(=O)N2Cc3ccccc3C#Cc3ccccc32)CCN(CC(=O)[O-])CC1.[Gd+3] [GdDO3A-DBCO monoamide]
second order rate constant of interception reaction ([1]; extrapolated from integrated second order rate law, FIG. 14): 48.4 M⁻¹ s⁻¹

Gd Remaining (%) ([4]; Entry 1: 0.5 hr, Water, 0% DMSO): 39% | Gd Remaining (%) ([4]; Entry 2: 0.5 hr, Water, 50% DMSO): 36% | Gd Remaining (%) ([4]; Entry 3: 8 hr, Water, 0% DMSO): 40% | Gd Remaining (%) ([4]; Entry 4: 8 hr, Water, 50% DMSO): 35% | Gd Remaining (%) ([4]; Entry 5: 0.5 hr, Surine, 0% DMSO): 27% | Gd Remaining (%) ([4]; Entry 6: 0.5 hr, Surine, 50% DMSO): 37% | Gd Remaining (%) ([4]; Entry 7: 8 hr, Surine, 0% DMSO): 39% | Gd Remaining (%) ([4]; Entry 8: 8 hr, Surine, 50% DMSO): 38% | τM, water residence lifetime [2]: 545 ns | AO/h [2]: −3.2 10^6 rad s^−1 | Δ HM [2]: 11 kcal/mol | ^22r1 (298K), relaxivity [3]: 4.7 mM⁻¹ s⁻¹ | ER ([3]; fitted): 4.28 kcal/mol | Δ^2 ([3]; fitted): 5.7 10^19 s^−2 | τRG, global rotational correlation time constant ([3]; fitted): 70 ps | τV ([3]; fitted): 8.4 ps | EV [3]: 1.0^a kJ mol^−1 | ^298D [3]: 2.24 | a [3]: 4.0^a Å | q [3]: 1^a | r [3]: 3.0^a Å
Compound: [Gd+3].[N-]=[N+]=NCCCNC(=O)CN1CCN(CC(=O)[O-])CCN(CC(=O)[O-])CCN(CC(=O)[O-])CC1 [GdDO3A-azido monoamide]

Compound: O=C([O-])CN1CCN(CC(=O)[O-])CCN(CC(=O)O)CCN(CC(=O)[O-])CC1.[Gd+3] [GdDOTA]
relaxivity [5]: 4.5 mM⁻¹ s⁻¹
